Reference: article PMC10114720

Experiments:
[1] = PDMS sheets cleaned by Soxhlet with ethyl acetate; batch shaking method with a mixture of all chemicals at several PDMS-mass to water-volume ratios and spiked levels; vials shaken on an orbital shaker at room temperature in the dark, sampled at two equilibration times; PDMS extracts and water quantified by LC-HRMS (Orbitrap); D from the slope of C_PDMS on C_w or their ratio; value is the mean over that pH's experiments (individual experiments in the SI's concentrations table), sd is the table's stdev; settings: PDMS (polydimethylsiloxane silicone sheet), phosphate buffer at three target pH values (the paper's methods)
[2] = neutral chemical: log K is the mean of log D over all measurements at the three pH values (D shown independent of pH, paired t-test); sd is the table's stddev. PDMS sheets cleaned by Soxhlet with ethyl acetate; batch shaking method with a mixture of all chemicals at several PDMS-mass to water-volume ratios and spiked levels; vials shaken on an orbital shaker at room temperature in the dark, sampled at two equilibration times; PDMS extracts and water quantified by LC-HRMS (Orbitrap); D from the slope of C_PDMS on C_w or their ratio; settings: PDMS (polydimethylsiloxane silicone sheet); phosphate buffer at three target pH values (the paper's methods)
[3] = monoprotic acid or base: log K of the neutral species extrapolated from the linear regression of D on the neutral fraction (from pKa and pH; the paper's eq. for monoprotic IOCs), the slope giving K of the neutral species; replicates column holds the table's 95% confidence limits. PDMS sheets cleaned by Soxhlet with ethyl acetate; batch shaking method with a mixture of all chemicals at several PDMS-mass to water-volume ratios and spiked levels; vials shaken on an orbital shaker at room temperature in the dark, sampled at two equilibration times; PDMS extracts and water quantified by LC-HRMS (Orbitrap); D from the slope of C_PDMS on C_w or their ratio; settings: PDMS (polydimethylsiloxane silicone sheet); phosphate buffer at three target pH values (the paper's methods)

Compound	log D PDMS/w (apparent distribution ratio at the stated pH) ([1]; pH 3)	log D PDMS/w (apparent distribution ratio at the stated pH) ([1]; pH 7.4)	log K PDMS/w (neutral species) [2]	log K PDMS/w (neutral species) [3]	log D PDMS/w (apparent distribution ratio at the stated pH) ([1]; pH 11.5)
N#CSCSc1nc2ccccc2s1	1.914 log units; D and K as the pape	1.821 log units; D and K as the pape	1.857 log units; D and K as the pape	1.892 log units; D and K as the pape	
COC(=O)C(c1ccccc1Cl)N1CCc2sccc2C1 (stereo not shown)	1.25 log units; D and K as the pape	-0.5267 log units; D and K as the pape	0.9169 log units; D and K as the pape		
O=C1NCCN1Cc1ccc(Cl)nc1		1.277 log units; D and K as the pape	1.372 log units; D and K as the pape		1.451 log units; D and K as the pape
CCCN(CCOc1c(Cl)cc(Cl)cc1Cl)C(=O)NC=O	2.492 log units; D and K as the pape	2.482 log units; D and K as the pape	2.487 log units; D and K as the pape		
